Experimental data as given in PubChem BioAssay (NCI).
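In this assay, cells in 96-well plates receive the compound at five concentrations for 48 hours. Endpoints are linearly interpolated between the surrounding concentrations. GI50 is the concentration that inhibits growth by half. TGI: concentration producing complete growth inhibition.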

Legend:
Test in all cases: DTP human tumour cell line panel, 48 h
786-0 renal = test system: 786-0 renal
A498 renal = test system: A498 renal
A549 NSCLC = test system: A549 NSCLC
ACHN renal = test system: ACHN renal
BT-549 breast = test system: BT-549 breast
CAKI-1 renal = test system: CAKI-1 renal
CCRF-CEM leukemia = test system: CCRF-CEM leukemia
COLO 205 colon = test system: COLO 205 colon
DU-145 prostate = test system: DU-145 prostate
EKVX NSCLC = test system: EKVX NSCLC
HCC-2998 colon = test system: HCC-2998 colon
HCT-116 colon = test system: HCT-116 colon
HCT-15 colon = test system: HCT-15 colon
HL-60(TB) leukemia = test system: HL-60(TB) leukemia
HOP-62 NSCLC = test system: HOP-62 NSCLC
HS 578T breast = test system: HS 578T breast
HT29 colon = test system: HT29 colon
IGROV1 ovarian = test system: IGROV1 ovarian
K-562 leukemia = test system: K-562 leukemia
KM12 colon = test system: KM12 colon
LOX IMVI melanoma = test system: LOX IMVI melanoma
M14 melanoma = test system: M14 melanoma
MALME-3M melanoma = test system: MALME-3M melanoma
MCF7 breast = test system: MCF7 breast
MDA-MB-231 breast = test system: MDA-MB-231 breast
MDA-MB-435 = test system: MDA-MB-435
MDA-MB-468 breast = test system: MDA-MB-468 breast
MOLT-4 leukemia = test system: MOLT-4 leukemia
NCI-H226 lung = test system: NCI-H226 lung
NCI-H23 lung = test system: NCI-H23 lung
NCI-H460 lung = test system: NCI-H460 lung
NCI-H522 lung = test system: NCI-H522 lung
NCI/ADR-RES ovarian = test system: NCI/ADR-RES ovarian
OVCAR-3 ovarian = test system: OVCAR-3 ovarian
OVCAR-4 ovarian = test system: OVCAR-4 ovarian
OVCAR-5 ovarian = test system: OVCAR-5 ovarian
OVCAR-8 ovarian = test system: OVCAR-8 ovarian
PC-3 prostate = test system: PC-3 prostate
RPMI-8226 leukemia = test system: RPMI-8226 leukemia
RXF 393 renal = test system: RXF 393 renal
SF-268 CNS = test system: SF-268 CNS
SF-295 CNS = test system: SF-295 CNS
SF-539 CNS = test system: SF-539 CNS
SK-MEL-2 melanoma = test system: SK-MEL-2 melanoma
SK-MEL-28 melanoma = test system: SK-MEL-28 melanoma
SK-MEL-5 melanoma = test system: SK-MEL-5 melanoma
SK-OV-3 ovarian = test system: SK-OV-3 ovarian
SN12C renal = test system: SN12C renal
SNB-19 CNS = test system: SNB-19 CNS
SR leukemia = test system: SR leukemia
SW-620 colon = test system: SW-620 colon
T-47D breast = test system: T-47D breast
TK-10 renal = test system: TK-10 renal
U251 CNS = test system: U251 CNS
UACC-257 melanoma = test system: UACC-257 melanoma
UACC-62 melanoma = test system: UACC-62 melanoma
UO-31 renal = test system: UO-31 renal

Cc1ccc2nc3c(nc2c1)c1cc(I)ccc1n3CCN(C)C
GI50 (786-0 renal): 5.54 µM | TGI (786-0 renal): 19.1 µM | GI50 (A498 renal): 14.2 µM | TGI (A498 renal): 29.3 µM | GI50 (A549 NSCLC): 3.66 µM | TGI (A549 NSCLC): 14.2 µM | GI50 (ACHN renal): 3.05 µM | TGI (ACHN renal): 13.2 µM | GI50 (BT-549 breast): 14.8 µM | TGI (BT-549 breast): 28.8 µM | GI50 (CAKI-1 renal): 3.78 µM | TGI (CAKI-1 renal): 17.9 µM | GI50 (CCRF-CEM leukemia): 12.6 µM | TGI (CCRF-CEM leukemia): 28.7 µM | GI50 (COLO 205 colon): 3.56 µM | TGI (COLO 205 colon): 16.7 µM | GI50 (DU-145 prostate): 5.04 µM | TGI (DU-145 prostate): 16.8 µM | GI50 (EKVX NSCLC): 7.08 µM | TGI (EKVX NSCLC): 20.9 µM | GI50 (HCC-2998 colon): 3.81 µM | TGI (HCC-2998 colon): 15.3 µM | GI50 (HCT-116 colon): 3.6 µM | TGI (HCT-116 colon): 14.4 µM | GI50 (HCT-15 colon): 3.14 µM | TGI (HCT-15 colon): 12.9 µM | GI50 (HL-60(TB) leukemia): 3.16 µM | TGI (HL-60(TB) leukemia): 20.5 µM | GI50 (HOP-62 NSCLC): 4.81 µM | TGI (HOP-62 NSCLC): 20.5 µM | GI50 (HS 578T breast): 12.5 µM | TGI (HS 578T breast): 34.3 µM | GI50 (HT29 colon): 3.42 µM | TGI (HT29 colon): 13.4 µM | GI50 (IGROV1 ovarian): 4.87 µM | TGI (IGROV1 ovarian): 18.5 µM | GI50 (K-562 leukemia): 4.06 µM | TGI (K-562 leukemia): 18.8 µM | GI50 (KM12 colon): 4.13 µM | TGI (KM12 colon): 16.8 µM | GI50 (LOX IMVI melanoma): 3.72 µM | TGI (LOX IMVI melanoma): 14.4 µM | GI50 (M14 melanoma): 11.1 µM | TGI (M14 melanoma): 25.4 µM | GI50 (MALME-3M melanoma): 10.3 µM | TGI (MALME-3M melanoma): 23.1 µM | GI50 (MCF7 breast): 3.35 µM | TGI (MCF7 breast): 13.9 µM | GI50 (MDA-MB-231 breast): 4.25 µM | TGI (MDA-MB-231 breast): 18 µM | GI50 (MDA-MB-435): 7.41 µM | TGI (MDA-MB-435): 20 µM | GI50 (MDA-MB-468 breast): 4.12 µM | TGI (MDA-MB-468 breast): 17.3 µM | GI50 (MOLT-4 leukemia): 7.02 µM | TGI (MOLT-4 leukemia): 24.8 µM | GI50 (NCI-H226 lung): 5.98 µM | TGI (NCI-H226 lung): 23.4 µM | GI50 (NCI-H23 lung): 6.07 µM | TGI (NCI-H23 lung): 19.6 µM | GI50 (NCI-H460 lung): 3.51 µM | TGI (NCI-H460 lung): 14 µM | GI50 (NCI-H522 lung): 4.64 µM | TGI (NCI-H522 lung): 18.5 µM | GI50 (NCI/ADR-RES ovarian): 4.67 µM | TGI (NCI/ADR-RES ovarian): 18.4 µM | GI50 (OVCAR-3 ovarian): 5.63 µM | TGI (OVCAR-3 ovarian): 18.7 µM | GI50 (OVCAR-4 ovarian): 6.19 µM | TGI (OVCAR-4 ovarian): 20.7 µM | GI50 (OVCAR-5 ovarian): 5.36 µM | TGI (OVCAR-5 ovarian): 18.5 µM | GI50 (OVCAR-8 ovarian): 3.72 µM | TGI (OVCAR-8 ovarian): 15.2 µM | GI50 (PC-3 prostate): 3.84 µM | TGI (PC-3 prostate): 17.5 µM | GI50 (RPMI-8226 leukemia): 7.59 µM | TGI (RPMI-8226 leukemia): 25.4 µM | GI50 (RXF 393 renal): 4.24 µM | TGI (RXF 393 renal): 15.7 µM | GI50 (SF-268 CNS): 5.36 µM | TGI (SF-268 CNS): 19.2 µM | GI50 (SF-295 CNS): 4.09 µM | TGI (SF-295 CNS): 16.2 µM | GI50 (SF-539 CNS): 4.87 µM | TGI (SF-539 CNS): 17.2 µM | GI50 (SK-MEL-2 melanoma): 13.2 µM | TGI (SK-MEL-2 melanoma): 26.4 µM | GI50 (SK-MEL-28 melanoma): 13.8 µM | TGI (SK-MEL-28 melanoma): 26.7 µM | GI50 (SK-MEL-5 melanoma): 12.1 µM | TGI (SK-MEL-5 melanoma): 25.2 µM | GI50 (SK-OV-3 ovarian): 13.3 µM | TGI (SK-OV-3 ovarian): 30.5 µM | GI50 (SN12C renal): 3.92 µM | TGI (SN12C renal): 15.5 µM | GI50 (SNB-19 CNS): 9.48 µM | TGI (SNB-19 CNS): 21.4 µM | GI50 (SR leukemia): 3.18 µM | TGI (SR leukemia): 14.8 µM | GI50 (SW-620 colon): 3.61 µM | TGI (SW-620 colon): 15.9 µM | GI50 (T-47D breast): 7.9 µM | TGI (T-47D breast): 24.9 µM | GI50 (TK-10 renal): 13.8 µM | TGI (TK-10 renal): 27.8 µM | GI50 (U251 CNS): 4.66 µM | TGI (U251 CNS): 16 µM | GI50 (UACC-257 melanoma): 13.4 µM | TGI (UACC-257 melanoma): 27 µM | GI50 (UACC-62 melanoma): 11.7 µM | TGI (UACC-62 melanoma): 24 µM | GI50 (UO-31 renal): 1.92 µM | TGI (UO-31 renal): 15.8 µM
